Earlier results as cited in patent US20080175908A1, “TABLET-IN-TABLET COMPOSITIONS” (Wyeth, priority 2007, published 2008).

Legend:
uterine response = conditions: preclinical models of uterine stimulation
[1] = test system: ovariectomized rat model of osteopenia
[2] = test system: MCF-7 cell line (human breast cancer cell line)

For `Cc1c(-c2ccc(O)cc2)n(Cc2ccc(OCCN3CCCCCC3)cc2)c2ccc(O)cc12` [bazedoxifene acetate, 1-[4-(2-azepan-1-yl-ethoxy)-benzyl]-2-(4-hydroxy-phenyl)-3-methyl-1H-indol-5-ol acetic acid], the “stimulation of uterine response” value (uterine response) is listed as “little or no stimulation of uterine response”, the “prevention of bone loss” value [1] is listed as “estrogen agonist-like effect in preventing bone loss” and the reduction of cholesterol [1] is listed as “reducing cholesterol”. For the same molecule, the estrogen antagonist behaviour [2] was “behaves as an estrogen antagonist”.
